In publication PMC12606641, “Surface Density of Mono- and Trivalent High-Mannan-Derived Targeting Structures with Different Affinities Impacts Cellular Uptake of Human Serum Albumin-Derived Nanocarriers” (Biomacromolecules, 2025):

Columns and labels:
CD206 CRD4 = biological target: T1, CD206 CRD4 (Homo sapiens, UniProt P22897); assay: NanoDSF thermal shift binding study, CD206 CRD4; conditions: for EC50: CD206 CRD4, 12 μM protein, unfolded fraction evaluated at 53 °C, Hill fit, read-out: EC50 (unfolded fraction vs TS concentration); for Kd: CD206 CRD4, calculated from EC50 with KD=(1−fuo)×(EC50−[P]/2)
T1 construct: Carbohydrate recognition domain 4 of CD206; made in house
T1 sequence (P22897 655-778 limits assumed): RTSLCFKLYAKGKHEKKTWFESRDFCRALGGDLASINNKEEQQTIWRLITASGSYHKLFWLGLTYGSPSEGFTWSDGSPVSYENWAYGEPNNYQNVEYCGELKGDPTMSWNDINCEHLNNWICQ
Experimental: (§1) Thermal shift experiments were performed by using a Prometheus NanoDSF instrument (NanoTemper, Munich, Germany). […] Each ligand concentration was measured in triplicate. Samples were subjected to a controlled temperature increase from 20 to 85 °C at a rate of 1.5 °C per minute. Protein unfolding was monitored by measuring the fluorescence emission ratio at 350 and 330 nm. […] Data were analyzed according to the vertical slice method developed by Bai et al. The unfolded fraction was plotted against the ligand concentration, and EC50 values were determined by fitting the data to the Hill equation using GraphPad Prism 8.0.1. K D values were calculated using eq based on the unfolded fraction in the absence of ligand (f uo) and the total protein concentration ([P]). Associated errors were determined according to the standard error propagation rules. KD=(1−fuo)×(EC50−[P]/2) 1 […]
(§2) In this study, NanoDSF was used to investigate the binding affinity of unconjugated monovalent TSs ManN3 and Man3N3, as well as the trivalent TSs (Man)3N3 and (Man3)3N3 for isolated CRDs of CD206 and CD209. Utilization of isolated CRDs instead of the complete tetrameric and octameric receptors allowed an investigation of the affinity without the potential occurrence of avidity effects taking place on the receptor side. […] The observed binding affinities to the isolated CRDs were in the low millimolar range, with all ligands showing stabilizing effects. […] In the solid-phase assay, the biotinylated CRDs were immobilized on streptavidin-coated plates in a defined orientation, likely enhancing the effective presentation of the binding site. In contrast, NanoDSF measurements were conducted with isolated, solubilized monomeric CRDs without surface- or orientation-related effects. Additionally, steric effects and interactions arising from the linker moiety may also impact binding affinity.
3 NanoDSF study for binding of mono- and trivalent TSs ManN3, Man3N3, (Man)3N3, and (Man3)3N3 to the CRDs of CD206 and CD209. (A) Affinity of mono- and trivalent TSs for CRD4 of CD206. (B) Affinity of mono- and trivalent TSs for CRD of CD209. The unfolded fraction of each CRD at different TS concentrations was determined at 53 °C for CD206 and at 63 °C for CD209. The unfolded fraction was plotted against TS concentration, and EC50 values were determined using GraphPad Prism 8.0.1. The respective K D values were calculated from EC50, as described in section , and are given for each case. […]
6 NanoDSF binding study for mono- and trivalent TSs
6.1 Recombinant protein expression and purification.
6.1.1 Carbohydrate recognition domain 4 of CD206
CRD 4 of CD206 was expressed as described previously.50 Briefly, a pT5T expression vector containing CRD4 of CD206 was transformed into competent Escherichia coli (E. coli) BL21 (DE3) cells. The cells were grown in LB medium containing 100 µg/mL ampicillin at 37 °C and 160 rpm until they reached an optical density (OD₆₀₀) of approximately 0.7. Overexpression was induced by adding 0.4 mM Isopropyl-β-D-thiogalactopyranoside (IPTG) for approximately 2.5 hours at 37 °C. Cells were harvested by centrifugation (10.000 × g at 4 °C for 15 minutes) and resuspended in cold buffer A (10 mM Tris-Cl, pH 7.8). Lysis was performed by thoroughly sonicating the cell pellets. Cell debris and inclusion bodies were collected by centrifugation (18,000 × g at 4 °C for 15 minutes), and the supernatant was discarded.
The inclusion bodies were then solubilized in 100 mL of denaturing buffer B (6 M guanidine-HCl, 100 mM Tris-Cl, pH 7.0). After adding 2-mercaptoethanol (10 µL), the suspension was incubated at 4 °C on ice for 30 minutes. Insoluble impurities were removed by centrifugation (18,000 × g at 4 °C for 30 minutes). The supernatant was refolded by three-step dialysis against 2 L of buffer C (0.5 M NaCl, 25 mM Tris-Cl, pH 7.8, 25 mM CaCl₂) at 4 °C overnight. After centrifugation (18,000 × g at 4 °C for […]

CD209 CRD = biological target: T2, CD209 CRD (Homo sapiens, UniProt Q9NNX6); assay: NanoDSF thermal shift binding study, CD209 CRD; conditions: for EC50: 12 μM protein, unfolded fraction evaluated at 63 °C, Hill fit, read-out: EC50 (unfolded fraction vs TS concentration); for Kd: calculated from EC50 with KD=(1−fuo)×(EC50−[P]/2)
T2 construct: Carbohydrate recognition domain of CD209; inferred from HisTrap/imidazole purification; made in house
T2 sequence (Q9NNX6 263-378 limits assumed): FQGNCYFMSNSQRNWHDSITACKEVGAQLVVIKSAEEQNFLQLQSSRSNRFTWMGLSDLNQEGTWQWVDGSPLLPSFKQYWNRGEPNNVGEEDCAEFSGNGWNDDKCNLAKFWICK
Experimental: as §1, §2
3 NanoDSF study for binding of mono- and trivalent TSs ManN3, Man3N3, (Man)3N3, and (Man3)3N3 to the CRDs of CD206 and CD209. (A) Affinity of mono- and trivalent TSs for CRD4 of CD206. (B) Affinity of mono- and trivalent TSs for CRD of CD209. The unfolded fraction of each CRD at different TS concentrations was determined at 53 °C for CD206 and at 63 °C for CD209. The unfolded fraction was plotted against TS concentration, and EC50 values were determined using GraphPad Prism 8.0.1. The respective K D values were calculated from EC50, as described in section , and are given for each case.
D (150 mM NaCl, 25 mM Tris-Cl, pH 7.8, 25 mM CaCl₂), the bound protein was eluted with buffer E (150 mM NaCl, 25 mM Tris-Cl, pH 7.8, 2.5 mM EDTA).
6.1.2 Carbohydrate recognition domain of CD209
The recombinant CRD of CD209 was expressed as described previously.55 Briefly, a pET-30 expression vector containing the CRD of CD209 was transformed into competent Escherichia coli (E. coli) BL21 (DE3) cells. The cells were grown in LB medium containing 100 µg/mL kanamycin at 37 °C and 160 rpm until they reached an optical density (OD₆₀₀) of approximately 0.7. Overexpression was induced by adding 0.5 mM IPTG for approximately 3 hours at 37 °C. Cells were harvested by centrifugation (10.000 × g at 4 °C for 15 minutes) and resuspended in cold buffer A (25 mM Tris-Cl, 150 mM NaCl, pH 8) supplemented with lysozyme, one tablet of protease inhibitor (cOmplete ™, Roche), and DNase I. Lysis was performed by thoroughly sonicating the resuspended cell pellets. Cell debris and inclusion bodies were collected by centrifugation (20,000 × g at 4 °C for 1 hour), and the supernatant was discarded. The inclusion bodies were resuspended in buffer A supplemented with 2 M urea and 1% Triton X-100. After a second centrifugation step, the inclusion bodies were solubilized in buffer A supplemented with 6 M guanidine hydrochloride and 0.01 % 2-mercaptoethanol. Insoluble impurities were removed by centrifugation (20.000 × g at 4 °C for 1 hour). The resulting supernatant was dialyzed […]

[1] = tested on: tetrameric extracellular domains (ECDs) of CD209; parameters: method as in Li et al.; conditions: TS presented in a trivalent manner, SPR, CD209 ECD; ref Li et al.; read-out: IC50 (binding affinity), trivalent presentation; cited from earlier work

Molecule | EC50 (CD206 CRD4) [mM] | Kd (CD206 CRD4) [mM] | EC50 (CD209 CRD) [mM] | Kd (CD209 CRD) [mM] | IC50 [1] [mM]
[N-]=[N+]=NCCOCCOCCOCCC(=O)NC(COCCC(=O)NCCOCCOCCOCCn1cc(CO[C@H]2O[C@H](CO[C@H]3O[C@H](CO)[C@@H](O)[C@H](O)[C@@H]3O)[C@@H](O)[C@H](O[C@H]3O[C@H](CO)[C@@H](O)[C@H](O)[C@@H]3O)[C@@H]2O)nn1)(COCCC(=O)NCCOCCOCCOCCn1cc(CO[C@H]2O[C@H](CO[C@H]3O[C@H](CO)[C@@H](O)[C@H](O)[C@@H]3O)[C@@H](O)[C@H](O[C@H]3O[C@H](CO)[C@@H](O)[C@H](O)[C@@H]3O)[C@@H]2O)nn1)COCCC(=O)NCCOCCOCCOCCn1cc(CO[C@H]2O[C@H](CO[C@H]3O[C@H](CO)[C@@H](O)[C@H](O)[C@@H]3O)[C@@H](O)[C@H](O[C@H]3O[C@H](CO)[C@@H](O)[C@H](O)[C@@H]3O)[C@@H]2O)nn1 [(Man3)3N3] | – | 3.1 | – | > 26.6 | –
trimannose | – | – | – | – | 0.0024

Continued, in another order:

EC50 (CD206 CRD4) [mM] | Kd (CD206 CRD4) [mM] | EC50 (CD209 CRD) [mM] | Kd (CD209 CRD) [mM] | Molecule | IC50 [1] [mM]
14.9 ± 0.97 | 6.9 | 16.4 ± 1.9 | 7.2 | [N-]=[N+]=NCCOCCOCCOCCn1cc(CO[C@H]2O[C@H](CO[C@H]3O[C@H](CO)[C@@H](O)[C@H](O)[C@@H]3O)[C@@H](O)[C@H](O[C@H]3O[C@H](CO)[C@@H](O)[C@H](O)[C@@H]3O)[C@@H]2O)nn1 [Man3N3] | –
– | 6.8 | – | 10.3 | [N-]=[N+]=NCCOCCOCCOCCC(=O)NC(COCCC(=O)NCCOCCOCCOCCn1cc(CO[C@H]2O[C@H](CO)[C@@H](O)[C@H](O)[C@@H]2O)nn1)(COCCC(=O)NCCOCCOCCOCCn1cc(CO[C@H]2O[C@H](CO)[C@@H](O)[C@H](O)[C@@H]2O)nn1)COCCC(=O)NCCOCCOCCOCCn1cc(CO[C@H]2O[C@H](CO)[C@@H](O)[C@H](O)[C@@H]2O)nn1 [(Man)3N3] | –
3.1 ± 0.6 | 1.3 | > 79.8 | > 36.3 | [N-]=[N+]=NCCOCCOCCOCCn1cc(CO[C@H]2O[C@H](CO)[C@@H](O)[C@H](O)[C@@H]2O)nn1 [ManN3] | –
